Our source for the GI50 values is patent US20240132521A1, “COMPOUNDS AND METHODS FOR MODULATING HER2” (Iambic Therapeutics, Inc., priority 2022, published 2024).

Format in all cases: cell-based
One assay addresses BaF3_HER2WT cells (Homo sapiens, UniProt P04626). Briefly: Cell growth inhibition assay (CellTiterGlo), BaF3_HER2WT. The note with it: 3-day treatment, CellTiterGlo, read-out: Cell growth inhibition activity, HER2 WT.
Another assay concerns the target BaF3_EGFRWT cells (Homo sapiens, UniProt P00533). Briefly: Cell growth inhibition assay (CellTiterGlo), BaF3_EGFRWT. The note with it: 3-day treatment, CellTiterGlo, read-out: Cell growth inhibition activity, EGFR WT. Background: Cellular ATP, detected with luciferase, serves as a proxy for viable cell number.
In a further assay the target is BaF3_HER2YVMA cells (Homo sapiens, UniProt P04626, DUP772-775, cells depend on it). Description: Cell growth inhibition assay (CellTiterGlo), BaF3_HER2YVMA. The settings on record: 3-day treatment, CellTiterGlo, read-out: Cell growth inhibition activity, HER2 - YVMA.
Chain of BaF3_HER2YVMA cells (P04626 with tags, fused parts or gaps DUP772-775): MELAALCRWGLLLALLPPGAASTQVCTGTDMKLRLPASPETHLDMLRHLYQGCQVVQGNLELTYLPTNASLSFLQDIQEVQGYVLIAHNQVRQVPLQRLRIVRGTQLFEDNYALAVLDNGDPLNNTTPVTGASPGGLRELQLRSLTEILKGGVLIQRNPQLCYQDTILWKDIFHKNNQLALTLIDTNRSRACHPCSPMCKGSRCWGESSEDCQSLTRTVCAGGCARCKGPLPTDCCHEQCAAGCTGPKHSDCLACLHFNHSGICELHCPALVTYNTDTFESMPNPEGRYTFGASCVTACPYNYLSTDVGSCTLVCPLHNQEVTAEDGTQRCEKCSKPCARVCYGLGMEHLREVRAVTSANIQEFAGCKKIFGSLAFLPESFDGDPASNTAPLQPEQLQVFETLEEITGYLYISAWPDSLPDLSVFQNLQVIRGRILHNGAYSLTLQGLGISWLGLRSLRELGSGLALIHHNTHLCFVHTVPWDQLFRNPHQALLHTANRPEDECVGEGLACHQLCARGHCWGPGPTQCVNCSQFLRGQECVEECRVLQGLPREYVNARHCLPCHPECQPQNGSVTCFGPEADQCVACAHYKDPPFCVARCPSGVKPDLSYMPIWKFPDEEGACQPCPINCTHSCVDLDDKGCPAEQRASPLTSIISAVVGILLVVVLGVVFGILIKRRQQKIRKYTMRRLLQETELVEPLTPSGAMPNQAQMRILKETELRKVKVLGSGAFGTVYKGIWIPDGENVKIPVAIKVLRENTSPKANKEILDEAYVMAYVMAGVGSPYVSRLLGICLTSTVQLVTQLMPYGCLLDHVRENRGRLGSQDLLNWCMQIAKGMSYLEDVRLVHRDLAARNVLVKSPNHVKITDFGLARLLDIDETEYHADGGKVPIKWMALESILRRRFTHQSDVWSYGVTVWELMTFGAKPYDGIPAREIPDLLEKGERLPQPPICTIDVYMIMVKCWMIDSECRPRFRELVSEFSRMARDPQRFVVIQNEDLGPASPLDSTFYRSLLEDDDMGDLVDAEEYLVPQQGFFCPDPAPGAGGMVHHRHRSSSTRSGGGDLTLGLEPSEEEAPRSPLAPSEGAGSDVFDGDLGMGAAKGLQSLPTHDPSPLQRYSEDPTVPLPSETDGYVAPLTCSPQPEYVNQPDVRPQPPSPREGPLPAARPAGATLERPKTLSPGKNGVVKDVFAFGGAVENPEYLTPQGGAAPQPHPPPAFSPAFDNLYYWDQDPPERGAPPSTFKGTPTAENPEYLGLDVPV

Chain of BaF3_HER2WT cells (P04626 whole entry, change not shown): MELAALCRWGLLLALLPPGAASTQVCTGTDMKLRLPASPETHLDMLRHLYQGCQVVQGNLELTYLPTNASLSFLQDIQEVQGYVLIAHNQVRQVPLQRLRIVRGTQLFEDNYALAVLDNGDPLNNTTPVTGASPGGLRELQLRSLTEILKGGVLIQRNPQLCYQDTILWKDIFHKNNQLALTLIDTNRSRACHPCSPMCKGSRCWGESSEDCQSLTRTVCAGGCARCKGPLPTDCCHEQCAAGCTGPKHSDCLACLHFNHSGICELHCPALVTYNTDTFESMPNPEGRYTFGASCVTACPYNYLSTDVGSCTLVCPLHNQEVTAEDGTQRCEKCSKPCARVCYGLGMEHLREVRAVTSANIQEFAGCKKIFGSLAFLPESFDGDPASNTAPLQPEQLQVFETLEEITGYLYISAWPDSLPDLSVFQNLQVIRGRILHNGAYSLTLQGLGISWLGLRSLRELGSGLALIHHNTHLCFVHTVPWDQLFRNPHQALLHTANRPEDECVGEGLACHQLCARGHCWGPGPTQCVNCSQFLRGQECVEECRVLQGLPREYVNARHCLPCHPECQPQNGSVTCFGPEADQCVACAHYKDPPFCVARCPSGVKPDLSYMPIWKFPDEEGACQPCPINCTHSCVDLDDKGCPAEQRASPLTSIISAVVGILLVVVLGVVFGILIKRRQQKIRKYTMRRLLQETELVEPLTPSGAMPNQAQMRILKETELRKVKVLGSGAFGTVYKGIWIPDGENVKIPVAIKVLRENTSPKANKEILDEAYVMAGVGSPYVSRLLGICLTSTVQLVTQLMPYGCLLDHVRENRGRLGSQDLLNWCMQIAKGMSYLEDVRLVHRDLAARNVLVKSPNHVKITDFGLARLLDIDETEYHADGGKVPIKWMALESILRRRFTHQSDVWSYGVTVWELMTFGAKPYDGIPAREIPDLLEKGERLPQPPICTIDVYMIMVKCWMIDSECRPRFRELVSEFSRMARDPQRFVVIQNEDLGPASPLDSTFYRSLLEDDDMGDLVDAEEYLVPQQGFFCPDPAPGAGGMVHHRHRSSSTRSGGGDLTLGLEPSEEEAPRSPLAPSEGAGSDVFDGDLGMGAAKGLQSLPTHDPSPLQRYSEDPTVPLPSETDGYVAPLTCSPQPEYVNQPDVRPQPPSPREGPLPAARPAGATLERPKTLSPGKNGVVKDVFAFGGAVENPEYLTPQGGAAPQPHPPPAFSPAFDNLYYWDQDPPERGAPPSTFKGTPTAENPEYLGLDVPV
Chain of BaF3_EGFRWT cells (P00533 whole entry, change not shown): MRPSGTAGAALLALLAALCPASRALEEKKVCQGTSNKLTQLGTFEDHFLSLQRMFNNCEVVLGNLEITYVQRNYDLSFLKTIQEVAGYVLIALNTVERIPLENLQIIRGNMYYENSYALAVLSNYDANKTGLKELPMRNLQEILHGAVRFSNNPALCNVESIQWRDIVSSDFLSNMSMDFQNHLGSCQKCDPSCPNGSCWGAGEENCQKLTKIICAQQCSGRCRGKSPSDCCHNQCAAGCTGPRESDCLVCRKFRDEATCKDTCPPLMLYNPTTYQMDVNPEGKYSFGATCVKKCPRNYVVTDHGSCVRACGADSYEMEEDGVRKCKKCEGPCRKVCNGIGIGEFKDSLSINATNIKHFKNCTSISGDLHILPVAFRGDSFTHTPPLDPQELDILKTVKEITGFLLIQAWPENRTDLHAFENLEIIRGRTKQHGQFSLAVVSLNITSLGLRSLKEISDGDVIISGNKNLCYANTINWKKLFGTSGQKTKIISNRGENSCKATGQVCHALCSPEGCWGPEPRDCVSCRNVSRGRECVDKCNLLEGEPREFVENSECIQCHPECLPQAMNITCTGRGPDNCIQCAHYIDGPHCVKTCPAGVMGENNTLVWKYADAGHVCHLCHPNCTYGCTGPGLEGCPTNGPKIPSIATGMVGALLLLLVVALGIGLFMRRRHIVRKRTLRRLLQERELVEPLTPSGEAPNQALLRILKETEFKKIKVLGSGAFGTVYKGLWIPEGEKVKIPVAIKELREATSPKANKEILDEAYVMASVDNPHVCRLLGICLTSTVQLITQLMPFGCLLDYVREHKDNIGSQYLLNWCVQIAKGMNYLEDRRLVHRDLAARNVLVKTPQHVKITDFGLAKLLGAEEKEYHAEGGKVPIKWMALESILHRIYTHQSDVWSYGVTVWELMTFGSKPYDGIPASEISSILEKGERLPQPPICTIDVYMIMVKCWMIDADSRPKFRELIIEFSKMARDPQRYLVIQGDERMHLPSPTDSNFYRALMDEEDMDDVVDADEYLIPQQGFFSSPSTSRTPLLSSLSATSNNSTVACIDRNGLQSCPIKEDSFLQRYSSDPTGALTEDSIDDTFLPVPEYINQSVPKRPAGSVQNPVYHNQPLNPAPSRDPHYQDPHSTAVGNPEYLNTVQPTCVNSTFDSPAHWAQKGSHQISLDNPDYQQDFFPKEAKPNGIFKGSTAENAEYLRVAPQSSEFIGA

On to `C=C(CN(C)C)C(=O)N1C2CCC1CN(c1ccn3ncnc(Nc4ccc(Oc5ccn6ncnc6c5)c(C)c4)c13)C2` [Example 48, 1-(3-(4-((4-([1,2,4]triazolo[1,5-a]pyridin-7-yloxy)-3-methylphenyl)amino)pyrrolo[2,1-f][1,2,4]triazin-5-yl)-3,8-diazabicyclo[3.2.1]octan-8-yl)-2-((dimethylamino)methyl)prop-2-en-1-one], for which the GI50 at BaF3_HER2WT cells was in the range of 200 to 500 nM; on BaF3_EGFRWT cells it was 1500 to 5000 nM; at BaF3_HER2YVMA cells, 1500 to 5000 nM.

Take `C=C(CN(C)C)C(=O)N1CC2CCC(C1)N2c1ccn2ncnc(Nc3ccc(Oc4ccn5ncnc5c4)c(C)c3)c12` [Example 49, 1-(8-(4-((4-([1,2,4]triazolo[1,5-a]pyridin-7-yloxy)-3-methylphenyl)amino)pyrrolo[2,1-f][1,2,4]triazin-5-yl)-3,8-diazabicyclo[3.2.1]octan-3-yl)-2-((dimethylamino)methyl)prop-2-en-1-one acetate]: the GI50 is less than 200 nM on BaF3_HER2WT cells, 1500 to 5000 nM at BaF3_EGFRWT cells and less than 200 nM at BaF3_HER2YVMA cells.

As to `Cc1cc(Nc2ncnn3ccc(C4(O)CCN(C(=O)/C=C/CN(C)C)CC4)c23)ccc1Oc1ccn2ncnc2c1` [Example 50, (E)-1-(4-(4-((4-([1,2,4]triazolo[1,5-a]pyridin-7-yloxy)-3-methylphenyl)amino)pyrrolo[2,1-f][1,2,4]triazin-5-yl)-4-hydroxypiperidin-1-yl)-4-(dimethylamino)but-2-en-1-one], the GI50 was 200 to 500 nM at BaF3_HER2WT cells, 1500 to 5000 nM at BaF3_EGFRWT cells and 500 to 1500 nM at BaF3_HER2YVMA cells.

As for `Cc1cc(Nc2ncnn3ccc(C4(O)CN(C(=O)/C=C/CN(C)C)C4)c23)ccc1Oc1ccn2ncnc2c1` [Example 51, (E)-1-(3-(4-((4-([1,2,4]triazolo[1,5-a]pyridin-7-yloxy)-3-methylphenyl)amino)pyrrolo[2,1-f][1,2,4]triazin-5-yl)-3-hydroxyazetidine-1-yl)-4-(dimethylamino)but-2-en-1-one], the GI50 is less than 200 nM on BaF3_HER2WT cells, 1500 to 5000 nM at BaF3_EGFRWT cells and less than 200 nM on BaF3_HER2YVMA cells.

As to `COC1(c2ccn3ncnc(Nc4ccc(Oc5ccn6ncnc6c5)c(C)c4)c23)CCN(C(=O)/C=C/CN(C)C)CC1` [Example 52, (E)-1-(4-(4-((4-([1,2,4]triazolo[1,5-a]pyridin-7-yloxy)-3-methylphenyl)amino)pyrrolo[2,1-f][1,2,4]triazin-5-yl)-4-methoxypiperidin-1-yl)-4-(dimethylamino)but-2-en-1-one], the figures for the GI50 on BaF3_HER2WT cells, on BaF3_EGFRWT cells and on BaF3_HER2YVMA cells were 200 to 500 nM, 1500 to 5000 nM and 500 to 1500 nM, respectively.

On to `Cc1cc(Nc2ncnn3ccc(C4=CCN(C(=O)/C=C/CN(C)C)CC4)c23)ccc1Oc1ccn2ncnc2c1` [Example 53, (E)-1-(4-(4-((4-([1,2,4]triazolo[1,5-a]pyridin-7-yloxy)-3-methylphenyl)amino)pyrrolo[2,1-f][1,2,4]triazin-5-yl)-3,6-dihydropyridin-1(2H)-yl)-4-(dimethylamino)but-2-en-1-one], for which the GI50 was less than 200 nM at BaF3_HER2WT cells, 1500 to 5000 nM at BaF3_EGFRWT cells and less than 200 nM at BaF3_HER2YVMA cells.

Consider `Cc1cc(Nc2ncnn3ccc(N4CCN(C(=O)/C=C/CN(C)C)CC4=O)c23)ccc1Oc1ccn2ncnc2c1` [Example 54, (E)-1-(4-((4-([1,2,4]triazolo[1,5-a]pyridin-7-yloxy)-3-methylphenyl)amino)pyrrolo[2,1-f][1,2,4]triazin-5-yl)-4-(4-(dimethylamino)but-2-enoyl)piperazin-2-one], for which the GI50 at BaF3_HER2WT cells was 500 to 1500 nM; on BaF3_EGFRWT cells, 1500 to 5000 nM; on BaF3_HER2YVMA cells, 1500 to 5000 nM.

With `C=CC(=O)N1CCC2CCC(C1)N2c1ccn2ncnc(Nc3ccc(Oc4ccn5ncnc5c4)c(C)c3)c12` (stereo not drawn) [Example 55, 1-(9-(4-((4-([1,2,4]triazolo[1,5-a]pyridin-7-yloxy)-3-methylphenyl)amino)pyrrolo[2,1-f][1,2,4]triazin-5-yl)-3,9-diazabicyclo[4.2.1]nonan-3-yl)prop-2-en-1-one], the GI50 was less than 200 nM on BaF3_HER2WT cells, 1500 to 5000 nM at BaF3_EGFRWT cells and 500 to 1500 nM on BaF3_HER2YVMA cells.

For the molecule `Cc1cc(Nc2ncnn3ccc(C4CCN(C(=O)/C=C/CN5CCOCC5)CC4)c23)ccc1Oc1ccn2ncnc2c1` [Example 56, (E)-1-(4-(4-((4-([1,2,4]triazolo[1,5-a]pyridin-7-yloxy)-3-methylphenyl)amino)pyrrolo[2,1-f][1,2,4]triazin-5-yl)piperidin-1-yl)-4-morpholinobut-2-en-1-one], the GI50 on BaF3_HER2WT cells is less than 200 nM; at BaF3_EGFRWT cells, 1500 to 5000 nM; at BaF3_HER2YVMA cells it was less than 200 nM.

As to `Cc1cc(Nc2ncnn3ccc(C4CCN(C(=O)/C=C/CN5CCCCC5)CC4)c23)ccc1Oc1ccn2ncnc2c1` [Example 57, (E)-1-(4-(4-((4-([1,2,4]triazolo[1,5-a]pyridin-7-yloxy)-3-methylphenyl)amino)pyrrolo[2,1-f][1,2,4]triazin-5-yl)piperidin-1-yl)-4-(piperidin-1-yl)but-2-en-1-one], the results for the GI50 on BaF3_HER2WT cells, on BaF3_EGFRWT cells and on BaF3_HER2YVMA cells were less than 200 nM, 1500 to 5000 nM and less than 200 nM, respectively.

As to `COC/C=C/C(=O)N1CCC(c2ccn3ncnc(Nc4ccc(Oc5ccn6ncnc6c5)c(C)c4)c23)CC1` [Example 58, (E)-1-(4-(4-((4-([1,2,4]triazolo[1,5-a]pyridin-7-yloxy)-3-methylphenyl)amino)pyrrolo[2,1-f][1,2,4]triazin-5-yl)piperidin-1-yl)-4-methoxybut-2-en-1-one], the GI50 at BaF3_HER2WT cells is less than 200 nM; on BaF3_EGFRWT cells, 1500 to 5000 nM; at BaF3_HER2YVMA cells, 500 to 1500 nM.

For `C#CCN(C)C/C=C/C(=O)N1CCC(c2ccn3ncnc(Nc4ccc(Oc5ccn6ncnc6c5)c(C)c4)c23)CC1` [Example 59, (E)-1-(4-(4-((4-([1,2,4]triazolo[1,5-a]pyridin-7-yloxy)-3-methylphenyl)amino)pyrrolo[2,1-f][1,2,4]triazin-5-yl)piperidin-1-yl)-4-(methyl(prop-2-yn-1-yl)amino)but-2-en-1-one], the results for the GI50 at BaF3_HER2WT cells, on BaF3_EGFRWT cells and at BaF3_HER2YVMA cells were less than 200 nM, 1500 to 5000 nM and 200 to 500 nM, respectively.

As to `Cc1cc(Nc2ncnn3ccc(C4CN(C(=O)/C=C/CN5CCC(F)CC5)C4)c23)ccc1Oc1ccn2ncnc2c1` [Example 62, (E)-1-(3-(4-((4-([1,2,4]triazolo[1,5-a]pyridin-7-yloxy)-3-methylphenyl)amino)pyrrolo[2,1-f][1,2,4]triazin-5-yl)azetidin-1-yl)-4-(4-fluoropiperidin-1-yl)but-2-en-1-one], the GI50 is less than 200 nM on BaF3_HER2WT cells, 1500 to 5000 nM at BaF3_EGFRWT cells and less than 200 nM at BaF3_HER2YVMA cells.

Regarding `Cc1cc(Nc2ncnn3ccc(N4CCN(C(=O)C(F)Cl)CC(F)(F)C4)c23)ccc1Oc1ccn2ncnc2c1` (stereo not drawn) [Example 63, 1-(4-(4-((4-([1,2,4]triazolo[1,5-a]pyridin-7-yloxy)-3-methylphenyl)amino)pyrrolo[2,1-f][1,2,4]triazin-5-yl)-6,6-difluoro-1,4-diazepan-1-yl)-2-chloro-2-fluoroethan-1-one], the GI50 at BaF3_HER2WT cells lay in the range of 500 to 1500 nM; on BaF3_EGFRWT cells it was 1500 to 5000 nM; on BaF3_HER2YVMA cells it was 500 to 1500 nM.

Regarding `Cc1cc(Nc2ncnn3ccc(C4CCN(C(=O)C#CCN(C)C)CC4)c23)ccc1Oc1ccn2ncnc2c1` [Example 64, 1-(4-(4-((4-([1,2,4]triazolo[1,5-a]pyridin-7-yloxy)-3-methylphenyl)amino)pyrrolo[2,1-f][1,2,4]triazin-5-yl)piperidin-1-yl)-4-(dimethylamino)but-2-yn-1-one], the values for the GI50 on BaF3_HER2WT cells, on BaF3_EGFRWT cells and on BaF3_HER2YVMA cells were less than 200 nM, 200 to 500 nM and less than 200 nM, respectively.

With `Cc1cc(Nc2ncnn3ccc(C4CCN(C(=O)/C=C/C5CCCN5C)CC4)c23)ccc1Oc1ccn2ncnc2c1` (stereo not drawn) [Example 65, (E)-1-(4-(4-((4-([1,2,4]triazolo[1,5-a]pyridin-7-yloxy)-3-methylphenyl)amino)pyrrolo[2,1-f][1,2,4]triazin-5-yl)piperidin-1-yl)-3-(1-methylpyrrolidin-2-yl)prop-2-en-1-one], the GI50 on BaF3_HER2WT cells was less than 200 nM; on BaF3_EGFRWT cells it was 1500 to 5000 nM; on BaF3_HER2YVMA cells it was less than 200 nM.

With `Cc1cc(Nc2ncnn3ccc(C4CN(C(=O)/C=C/C5CCCN5C)C4)c23)ccc1Oc1ccn2ncnc2c1` (stereo not drawn) [Example 66, (E)-1-(3-(4-((4-([1,2,4]triazolo[1,5-a]pyridin-7-yloxy)-3-methylphenyl)amino)pyrrolo[2,1-f][1,2,4]triazin-5-yl)azetidin-1-yl)-3-(1-methylpyrrolidin-2-yl)prop-2-en-1-one], the GI50 at BaF3_HER2WT cells is less than 200 nM; on BaF3_EGFRWT cells, 1500 to 5000 nM; at BaF3_HER2YVMA cells it was less than 200 nM.

In the case of `C=C(CN(C)C)C(=O)N1CC(c2ccn3ncnc(Nc4ccc(Oc5ccc6c(c5)ncn6C)c(C)c4)c23)C1` [Example 67, 2-((dimethylamino)methyl)-1-(3-(4-((3-methyl-4-((1-methyl-1H-benzo[d]imidazol-5-yl)oxy)phenyl)amino)pyrrolo[2,1-f][1,2,4]triazin-5-yl)azetidin-1-yl)prop-2-en-1-one], the GI50 at BaF3_HER2WT cells was less than 200 nM; on BaF3_EGFRWT cells it was 500 to 1500 nM; on BaF3_HER2YVMA cells, less than 200 nM.

Take `Cc1cc(Nc2ncnn3ccc(N4CCCC(N(C)C(=O)/C=C/CN(C)C)C4)c23)ccc1Oc1ccn2ncnc2c1` (stereo not drawn) [Example 68, (E)-N-(1-(4-((4-([1,2,4]triazolo[1,5-a]pyridin-7-yloxy)-3-methylphenyl)amino)pyrrolo[2,1-f][1,2,4]triazin-5-yl)piperidin-3-yl)-4-(dimethylamino)-N-methylbut-2-enamide]: the GI50 on BaF3_HER2WT cells was less than 200 nM; on BaF3_EGFRWT cells, 1500 to 5000 nM; on BaF3_HER2YVMA cells, less than 200 nM.

Take `C=CC(=O)N(C)C1CCCN(c2ccn3ncnc(Nc4ccc(Oc5ccn6ncnc6c5)c(C)c4)c23)C1` (stereo not drawn) [Example 69, N-(1-(4-((4-([1,2,4]triazolo[1,5-a]pyridin-7-yloxy)-3-methylphenyl)amino)pyrrolo[2,1-f][1,2,4]triazin-5-yl)piperidin-3-yl)-N-methylacrylamide]: the GI50 on BaF3_HER2WT cells was less than 200 nM; on BaF3_EGFRWT cells, 1500 to 5000 nM; on BaF3_HER2YVMA cells, 200 to 500 nM.
